System: ammonia lateralization threshold
Assay: Panel evaluation of the lateralization threshold (LT) of ammonia alone and in combination with a PRM
Type: in vivo, panellists
Design: LT of ammonia Panellist 1 Cond II / LT of ammonia Panellist 2 Cond II / LT of ammonia Panellist 3 Cond II: unit not given here
Details: for LT of ammonia Panellist 1 Cond II / LT of ammonia Panellist 2 Cond II / LT of ammonia Panellist 3 Cond II / LT of ammonia Panellist 1 %Δ / LT of ammonia Panellist 2 %Δ / LT of ammonia Panellist 3 %Δ: Table 4; for LT of ammonia Panellist 1 Cond II / LT of ammonia Panellist 2 Cond II / LT of ammonia Panellist 3 Cond II: ammonia stimulus combined with PRM stimulus; for LT of ammonia Panellist 1 %Δ / LT of ammonia Panellist 2 %Δ / LT of ammonia Panellist 3 %Δ / Ammonia LT Panellist 1 % Δ / Ammonia LT Panellist 2 % Δ / Ammonia LT Panellist 3 % Δ: change of ammonia LT, Cond II (with PRM) vs Cond I (ammonia alone); for Ammonia LT Panellist 1 Cond II / Ammonia LT Panellist 2 Cond II / Ammonia LT Panellist 3 Cond II / Ammonia LT Panellist 1 % Δ / Ammonia LT Panellist 2 % Δ / Ammonia LT Panellist 3 % Δ: Table 3; for Ammonia LT Panellist 1 Cond II / Ammonia LT Panellist 2 Cond II / Ammonia LT Panellist 3 Cond II: ammonia stimulus combined with PRM stimulus (concentration of Table 2 in propylene glycol)
Description: An ammonia stimulus test range was prepared. To ensure a stable level of ammonia in each stimulus, the ammonia headspace was stabilized by combining appropriate concentrations of NH4Cl, NaOH and H2O instead of simply adding ammonia directly to a solvent. Different concentrations of ammonia were used to create a stimulus test range by utilizing the appropriate amount of each compound (see Table 1).
A stimulus was also prepared for each PRM which was intended to be combined with ammonia stimuli. As the PRMs differed in their potency and to ensure that each PRM stimulus had approximately the same potency, an abbreviated dose response curve was constructed for each PRM by having four panellists evaluate the intensity of five concentration levels of the PRM dissolved in propylene glycol in duplicate. Assessments were made relative to the reference of 170 ppm allyl heptanoate in propylene glycol, which intensity was set to 0. Based upon the average scores, a rough intensity match was made for each PRM utilizing one of the following criteria. If one of the tested concentration levels averaged at or near zero, this concentration level was selected. If the rating created any sort of reasonable curve, the equation of the curve was determined and solved for 0 to arrive at the PRM assessment level. If multiple concentration levels were equally distant form the match level, then the standard deviation across individuals was considered, as were the individual responses. In general, the PRM level was selected to be on average close to 0 with low variability, with two panellists saying the level was a bit too high and the other two panellists saying the level was a bit too low. The PRMs for which a stimulus was prepared are listed in Table 2 below, together with the concentration of the PRM in the stimulus.
Volunteers were screened for their ability to lateralize ammonia stimuli. For the screening, the experimenter measured the participant's lateralization threshold for ammonia using a two-alternative forced choice modified staircase procedure employing a four-in, two-down, one-up rule with a five reversal criterion, as described below, On each trial volunteers were presented with a pair of glass bottles with clean, custom-made nose pieces. One bottle contained ammonia at a particular level selected from Table 1 and the other bottle contained water only. Each bottle was applied to one nostril using the nose piece. The volunteers were asked to identify which bottle in each pair contained ammonia.
If the ammonia stimulus was correctly identified in four consecutive trials, the concentration was decreased by one level of Table 1 on the next trial. If an incorrect answer was provided, the concentration was increased by one level of Table 1. Location (left or right nostril) of the stimulus was randomized over presentations. Testing continued until one of the following occurred: • 1) Five reversals (correct decision followed by an incorrect decision or vice versa) were achieved; • 2) The volunteer gave a correct response twice in a row at the lowest level of Table 1; or • 3) The volunteer gave an incorrect response at the highest level of Table 1.
In the first circumstance, threshold values were then calculated by averaging the last four reversals. In the second circumstance, the LT was the lowest level. In the third circumstance, the LT could not be calculated. Volunteers were considered qualified to participate in the panel evaluation if their LT could be calculated (Circumstance 1).
The LT of ammonia, both alone and in combination with diverse PRM, was determined. A repeated-measures design was used, such that the LT with and without the addition of a PRM were both measured at the same time in one person by utilizing interwoven stimuli presentations. The LT for each PRM was measured by two to three panellists, the third panellists being included if the results of the first to panellists disagreed. […]

## CCCCC[C@H]1CCC[C@H]1O (relative stereo) [Cis-2-pentyl-1-cyclopentanol]
  LT of ammonia Panellist 1 Cond II: 2.0
  LT of ammonia Panellist 2 Cond II: 0.4
  LT of ammonia Panellist 3 Cond II: 3.5
  LT of ammonia Panellist 1 %Δ: 216%
  LT of ammonia Panellist 2 %Δ: 90%
  LT of ammonia Panellist 3 %Δ: 212%

## C=CC(C)(O)CCC=C(C)C (stereo not drawn) [Linalool]
  Ammonia LT Panellist 1 Cond II: 188.3 ppm
  Ammonia LT Panellist 2 Cond II: 22.9 ppm
  Ammonia LT Panellist 3 Cond II: 56.3 ppm
  Ammonia LT Panellist 1 % Δ: 2480%
  Ammonia LT Panellist 2 % Δ: 0%
  Ammonia LT Panellist 3 % Δ: 214%

## CCC1CC(C)(C)CCC1=O (stereo not drawn) [2-Ethyl-4,4-dimethyl-1-cyclohexanone]
  LT of ammonia Panellist 1 Cond II: 3.5
  LT of ammonia Panellist 2 Cond II: 2.0
  LT of ammonia Panellist 3 Cond II: 2.0
  LT of ammonia Panellist 1 %Δ: 212%
  LT of ammonia Panellist 2 %Δ: 471%
  LT of ammonia Panellist 3 %Δ: 217%

## CCCC(=O)OCC(C)C [Isopropylmethyl butyrate]
  Ammonia LT Panellist 1 Cond II: 188.4 ppm
  Ammonia LT Panellist 2 Cond II: 188.3 ppm
  Ammonia LT Panellist 1 % Δ: 81809%
  Ammonia LT Panellist 2 % Δ: 235%

## CC(C)[C@H]1CC[C@@H](CO)CC1 [Mayol ®, cis-7-P-menthanol]
  LT of ammonia Panellist 1 Cond II: 0.6
  LT of ammonia Panellist 2 Cond II: 3.5
  LT of ammonia Panellist 3 Cond II: 3.5
  LT of ammonia Panellist 1 %Δ: 800%
  LT of ammonia Panellist 2 %Δ: 212%
  LT of ammonia Panellist 3 %Δ: 212%

## COC(=O)c1ccccc1 [Methyl benzoate]
  Ammonia LT Panellist 1 Cond II: 7.3 ppm
  Ammonia LT Panellist 2 Cond II: 60 ppm
  Ammonia LT Panellist 1 % Δ: 213%
  Ammonia LT Panellist 2 % Δ: 162%

## C=C1CCCC(C)(C)C1C(=O)/C=C/C (racemic) [Gamma damascone, (+−)-(E)-1-(2,2-dimethyl-6-methylene-1-cyclohexyl)-2-buten-1-one]
  LT of ammonia Panellist 1 Cond II: 6.3
  LT of ammonia Panellist 2 Cond II: 19.6
  LT of ammonia Panellist 3 Cond II: 11.1
  LT of ammonia Panellist 1 %Δ: 214%
  LT of ammonia Panellist 2 %Δ: 885%
  LT of ammonia Panellist 3 %Δ: 456%

## O=Cc1ccc2c(c1)OCO2 [Heliotropine ®, 1,3-Benzodioxole-5-carbaldehyde]
  Ammonia LT Panellist 1 Cond II: 7.3 ppm
  Ammonia LT Panellist 2 Cond II: 22.9 ppm
  Ammonia LT Panellist 3 Cond II: 2.3 ppm
  Ammonia LT Panellist 1 % Δ: 274%
  Ammonia LT Panellist 2 % Δ: −87%
  Ammonia LT Panellist 3 % Δ: −96%

## CC(OC=O)C1CCCC(C)(C)C1 (stereo not drawn) [Aphermate]
  Ammonia LT Panellist 1 Cond II: 6.1 ppm
  Ammonia LT Panellist 2 Cond II: 71.9 ppm
  Ammonia LT Panellist 1 % Δ: −68%
  Ammonia LT Panellist 2 % Δ: −59%

## CC1(C)CCCC2(C)C1CCC1(C)OCCC12 (stereo not drawn) [Cetalox ®, Dodecahydro-3a,6,6,9a-tetramethyl-naphtho[2,1-b]furan]
  Ammonia LT Panellist 1 Cond II: 2.3 ppm
  Ammonia LT Panellist 2 Cond II: 225.5 ppm
  Ammonia LT Panellist 3 Cond II: 2.3 ppm
  Ammonia LT Panellist 1 % Δ: −90%
  Ammonia LT Panellist 2 % Δ: 2988%
  Ammonia LT Panellist 3 % Δ: −68%

## C[C@H]1[C@@H]2CC(C[C@@]13C=CC(=O)CC3)C2(C)C (single isomer, unassigned; (+))
  LT of ammonia Panellist 1 Cond II: 0.4
  LT of ammonia Panellist 2 Cond II: 0.6
  LT of ammonia Panellist 3 Cond II: 0.6
  LT of ammonia Panellist 1 %Δ: 75%
  LT of ammonia Panellist 2 %Δ: 417%
  LT of ammonia Panellist 3 %Δ: 215%

## CC(CC=O)CCCC(C)(C)O (stereo not drawn) [Hydroxycitronellal]
  Ammonia LT Panellist 1 Cond II: 71.9 ppm
  Ammonia LT Panellist 2 Cond II: 56.1 ppm
  Ammonia LT Panellist 3 Cond II: 22.9 ppm
  Ammonia LT Panellist 1 % Δ: 20%
  Ammonia LT Panellist 2 % Δ: −22%
  Ammonia LT Panellist 3 % Δ: 20%

## CCCCC[C@@H]1C(=O)CC[C@@H]1CC(=O)OC [Paradisone ®, (+)-Methyl (1R)-cis-3-oxo-2-pentyl-1-cyclopentaneacetate]
  Ammonia LT Panellist 1 Cond II: 22.9 ppm
  Ammonia LT Panellist 2 Cond II: 225.5 ppm
  Ammonia LT Panellist 3 Cond II: 6.1 ppm
  Ammonia LT Panellist 1 % Δ: 0%
  Ammonia LT Panellist 2 % Δ: 214%
  Ammonia LT Panellist 3 % Δ: −73%

## CCCc1ccc(OC)cc1 [Dihydroestragole]
  Ammonia LT Panellist 1 Cond II: 7.3 ppm
  Ammonia LT Panellist 2 Cond II: 71.9 ppm
  Ammonia LT Panellist 3 Cond II: 22.9 ppm
  Ammonia LT Panellist 1 % Δ: −62%
  Ammonia LT Panellist 2 % Δ: 28%
  Ammonia LT Panellist 3 % Δ: 214%

## C=C1CCCC(C)(C)C1C(=O)OC (stereo not drawn) [Romascone ®, Methyl 2,2-dimethyl-6-methylene-1-cyclohexanecarboxylate]
  LT of ammonia Panellist 1 Cond II: 11.1
  LT of ammonia Panellist 2 Cond II: 2.0
  LT of ammonia Panellist 3 Cond II: 6.3
  LT of ammonia Panellist 1 %Δ: 1685%
  LT of ammonia Panellist 2 %Δ: 77%
  LT of ammonia Panellist 3 %Δ: 1686%

## C=CCOC(=O)COC1CCCCC1 [Cyclogalbanate, Allyl (cyclohexyloxy)-acetate]
  LT of ammonia Panellist 1 Cond II: 2.0
  LT of ammonia Panellist 2 Cond II: 6.3
  LT of ammonia Panellist 3 Cond II: 3.5
  LT of ammonia Panellist 1 %Δ: 216%
  LT of ammonia Panellist 2 %Δ: 453%
  LT of ammonia Panellist 3 %Δ: 212%

## CC(C)CC1CC(C)(O)CCO1 (stereo not drawn) [Florol ®, Tetrahydro-2-isobutyl-4-methyl-4(2H)-pyranol]
  Ammonia LT Panellist 1 Cond II: 56.3 ppm
  Ammonia LT Panellist 2 Cond II: 7.3 ppm
  Ammonia LT Panellist 3 Cond II: 22.9 ppm
  Ammonia LT Panellist 1 % Δ: 146%
  Ammonia LT Panellist 2 % Δ: −62%
  Ammonia LT Panellist 3 % Δ: 0%

## CC(=O)OCCC1CCCCC1 [2-cyclohexylethyl acetate]
  LT of ammonia Panellist 1 Cond II: 2.0
  LT of ammonia Panellist 2 Cond II: 1.1
  LT of ammonia Panellist 3 Cond II: 1.1
  LT of ammonia Panellist 1 %Δ: 848%
  LT of ammonia Panellist 2 %Δ: 465%
  LT of ammonia Panellist 3 %Δ: 842%

## O=C1CCCCCCCCCCCCCCO1 [Exaltolide ®, Pentadecanolide]
  Ammonia LT Panellist 1 Cond II: 6.1 ppm
  Ammonia LT Panellist 2 Cond II: 71.9 ppm
  Ammonia LT Panellist 1 % Δ: 213%
  Ammonia LT Panellist 2 % Δ: 214%

## CCOC(=O)C(=O)C(C)CC (stereo not drawn) [Ethyl 3-methyl-2-oxopentanoate]
  LT of ammonia Panellist 1 Cond II: 0.6
  LT of ammonia Panellist 2 Cond II: 0.6
  LT of ammonia Panellist 3 Cond II: 0.6
  LT of ammonia Panellist 1 %Δ: 417%
  LT of ammonia Panellist 2 %Δ: 786%
  LT of ammonia Panellist 3 %Δ: 210%

## C=C(C)C1CC=C(C)C(=O)C1 (stereo not drawn) [Carvone]
  Ammonia LT Panellist 1 Cond II: 19.1 ppm
  Ammonia LT Panellist 2 Cond II: 225.5 ppm
  Ammonia LT Panellist 1 % Δ: 214%
  Ammonia LT Panellist 2 % Δ: 214%

## CC(C)CCCC(C)CCO (stereo not drawn) [3,7-Dimethyl-1-octanol]
  LT of ammonia Panellist 1 Cond II: 6.3
  LT of ammonia Panellist 2 Cond II: 3.5
  LT of ammonia Panellist 3 Cond II: 3.5
  LT of ammonia Panellist 1 %Δ: 214%
  LT of ammonia Panellist 2 %Δ: 77%
  LT of ammonia Panellist 3 %Δ: 77%

## CC=CC(=O)C1=C(C)CCCC1(C)C [Beta Dorinone ®, 1-(2,6,6-trimethyl-1-cyclohexen-1-yl)-2-buten-1-one]
  LT of ammonia Panellist 1 Cond II: 11.1
  LT of ammonia Panellist 2 Cond II: 19.6
  LT of ammonia Panellist 3 Cond II: 2.0
  LT of ammonia Panellist 1 %Δ: 214%
  LT of ammonia Panellist 2 %Δ: 885%
  LT of ammonia Panellist 3 %Δ: 1558%

## CC1C(=O)O[C@H]2C[C@@H](C)CC[C@H]12 (mixture of isomers) [Koumalactone ®, (3aRS,6SR,7aSR)-perhydro-3,6-dimethyl-benzo[B]furan-2-one]
  Ammonia LT Panellist 1 Cond II: 19.1 ppm
  Ammonia LT Panellist 2 Cond II: 71.9 ppm
  Ammonia LT Panellist 1 % Δ: 162%
  Ammonia LT Panellist 2 % Δ: 214%

## CCCCC(CC)CCC(C)O (stereo not drawn) [5-ethyl-2-nonanol]
  LT of ammonia Panellist 1 Cond II: 19.6
  LT of ammonia Panellist 2 Cond II: 6.2
  LT of ammonia Panellist 3 Cond II: 6.3
  LT of ammonia Panellist 1 %Δ: 885%
  LT of ammonia Panellist 2 %Δ: 452%
  LT of ammonia Panellist 3 %Δ: 214%

— patent US20130287721A1, “METHOD FOR COUNTERACTING AMMONIA MALODOR” (Firmenich SA, priority 2010, published 2013)
